Data reported in paper PMC3529809 (Steroids, 2012).
“And” between values parts separate entries of the source, which are not always exact repeats. Equal entries are not always repeated. “Also recorded” adds a separate entry of the source.

Tests used:
human ERβ [1] = molecular target: T1, human ERβ (Homo sapiens, UniProt Q92731); experiment: ERELUC transient transfection reporter assay, ERβ in HepG2 cells; format: cell-based; settings: for effect on ERβ-mediated induction of ERELUC by E2, DHEA, 7-oxo-DHEA, ADIOL and ADIONE: 1 µM ICI, 100 nM 4-OHT, 1 µM R,R-THC, 5 µM sterol, Fig. 3B; for ERELUC activity in ERβ-expressing HepG2 cells: 5 µM, 24 h, Fig. 1B, result in words
NRF1 (NRF-1) expression = experiment: QRT-PCR of NRF1 in ERβ-transfected HepG2 cells; format: cell-based, human; settings: 10 nM E2 or 5 µM sterol, 24 h, Fig. 5B
MCF-7 cells = settings: cited from earlier work; for proliferation of MCF-7 cells: 1–10 µM concentrations; for MCF-7 cell proliferation: less than E2
ERα = settings: 0.1 µM, HEK-293; cited from earlier work
ERβ = settings: 0.1 µM, HEK-293; cited from earlier work
hERα [2] = molecular target: T2, hERα (Homo sapiens, UniProt P03372); experiment: [3H] E2 ligand binding competition; settings: for ERα binding / competition with E2: result in words
human ERβ [3] = molecular target: T1, human ERβ; experiment: [3H] E2 ligand binding competition; settings: IC50 for ERβ, competition with 30 nM [3H] E2, Fig. 6B
hERα [4] = molecular target: T2, hERα; experiment: ERELUC transient transfection reporter assay, ERα in HEK-293 cells; format: cell-based; settings: for ERα agonist activity in ERELUC assay: result in words
[5] = test system: TFF1 (pS2), PGR (PR), CTSD (cathepsin D) transcription; experiment: QRT-PCR of endogenous ER-target genes in ERα-transfected HEK-293 cells; format: cell-based, human; settings: 10 nM E2 or 5 µM sterol, 24 h, Fig. 5A
[6] = test system: MCF-7 human breast cancer cells; experiment: Cell proliferation BrdU assay; format: cell-based; settings: for MCF-7 cell proliferation: 48 h BrdU, 10 nM E2, 5 µM sterols, Fig. 7
hERα [7] = molecular target: T2, hERα; format: cell-based; settings: Supplemental Fig. 1
[8] = MEK1/2 inhibitor, data not shown

T2 sequence (P03372 whole entry): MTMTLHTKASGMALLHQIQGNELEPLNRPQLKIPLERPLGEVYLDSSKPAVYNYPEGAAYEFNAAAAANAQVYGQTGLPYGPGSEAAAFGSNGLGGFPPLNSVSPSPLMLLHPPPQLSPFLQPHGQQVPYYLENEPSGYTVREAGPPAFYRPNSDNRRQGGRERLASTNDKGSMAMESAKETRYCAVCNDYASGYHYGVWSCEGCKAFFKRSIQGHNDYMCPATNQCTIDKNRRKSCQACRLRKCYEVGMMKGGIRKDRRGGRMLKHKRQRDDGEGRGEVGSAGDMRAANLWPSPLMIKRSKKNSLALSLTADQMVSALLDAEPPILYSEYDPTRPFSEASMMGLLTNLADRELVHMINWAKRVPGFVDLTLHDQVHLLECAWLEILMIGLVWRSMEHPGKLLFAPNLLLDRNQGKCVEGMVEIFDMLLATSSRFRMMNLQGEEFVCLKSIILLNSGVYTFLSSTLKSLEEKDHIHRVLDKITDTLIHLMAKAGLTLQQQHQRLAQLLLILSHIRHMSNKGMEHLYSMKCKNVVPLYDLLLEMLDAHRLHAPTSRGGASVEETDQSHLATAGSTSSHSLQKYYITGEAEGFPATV
T1 sequence (Q92731 whole entry): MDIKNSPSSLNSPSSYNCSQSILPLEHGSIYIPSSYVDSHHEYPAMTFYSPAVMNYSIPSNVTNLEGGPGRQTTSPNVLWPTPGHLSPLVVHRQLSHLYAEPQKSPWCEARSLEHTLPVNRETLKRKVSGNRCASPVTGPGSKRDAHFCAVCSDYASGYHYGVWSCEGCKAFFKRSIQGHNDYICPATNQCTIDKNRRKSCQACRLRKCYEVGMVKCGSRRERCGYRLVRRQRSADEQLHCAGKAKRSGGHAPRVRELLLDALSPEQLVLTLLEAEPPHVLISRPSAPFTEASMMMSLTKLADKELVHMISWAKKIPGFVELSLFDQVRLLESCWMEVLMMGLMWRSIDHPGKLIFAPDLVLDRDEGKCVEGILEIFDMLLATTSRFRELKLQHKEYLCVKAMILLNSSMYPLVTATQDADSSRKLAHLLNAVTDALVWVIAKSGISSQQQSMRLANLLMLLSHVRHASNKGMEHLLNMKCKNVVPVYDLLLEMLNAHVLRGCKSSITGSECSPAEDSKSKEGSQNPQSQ

## CC[C@@H]1Cc2cc(O)ccc2C2=C1c1ccc(O)cc1C[C@H]2CC (relative stereo) [R,R-THC, R,R-cis-diethyl tetrahydrochrysene, reference compound]
Human ERβ [1]
  effect on ERβ-mediated induction of ERELUC by E2, DHEA, 7-oxo-DHEA, ADIOL and ADIONE: significantly inhibited

## C[C@]12CC[C@H](O)C[C@@H]1CC[C@@H]1[C@@H]2CC[C@]2(C)[C@@H](O)CC[C@@H]12 [3β-Adiol, 5α-androstane-3β,17β-adiol]
NRF1 (NRF-1) expression
  NRF-1 mRNA expression: increased; also recorded: low induction
MCF-7 cells
  proliferation of MCF-7 cells: stimulated proliferation
ERα
  ERE-luciferase activity, ERα: activated
ERβ
  ERE-luciferase activity, ERβ: activated

## CC/C(=C(\c1ccc(O)cc1)c1ccc(OCCN(C)C)cc1)c1ccccc1 [4-OHT, 4-hydroxytamoxifen, reference compound]
Human ERβ [1]
  effect on ERβ-mediated induction of ERELUC by E2, DHEA, 7-oxo-DHEA, ADIOL and ADIONE: inhibited

## C[C@]12CC[C@H](O)CC1=CC(=O)[C@@H]1[C@@H]2CC[C@]2(C)C(=O)CC[C@@H]12 [7-oxo-DHEA, 3β-hydroxyandrost-5-ene-7,17-dione]
hERα [2]
  ERα binding / competition with E2: did not exhibit significant ERα binding
Human ERβ [3]
  IC50: 500 µM
hERα [4]; HEK-293
  ERα agonist activity in ERELUC assay: lack of ERα-induced ERE-luciferase activity
Human ERβ [1]
  ERELUC activity in ERβ-expressing HepG2 cells: significantly induced
[5]
  CTSD (cathepsin D) expression: no activation
  PGR (PR) expression: no activation
  TFF1 (pS2) expression: increased
NRF1 (NRF-1) expression
  NRF-1 mRNA expression: low induction
[6]
  MCF-7 cell proliferation: increased

## C[C@]12CC[C@H](O)C[C@@H]1C[C@@H](O)[C@@H]1[C@@H]2CC[C@]2(C)C(=O)CC[C@@H]12 [7α-OH-EpiA, 7α-hydroxy-epiandrosterone]
MCF-7 cells; 1–100 nM
  MCF-7 proliferation: inhibited

## C[C@]12CC[C@H](O)CC1=C[C@H](O)[C@@H]1[C@@H]2CC[C@]2(C)C(=O)CC[C@@H]12 [7β-OH-DHEA, 7β-hydroxy-DHEA]
Human ERβ [1]
  ERELUC activity in ERβ-expressing HepG2 cells: suppressed

## C[C@]12CC[C@H](O)C[C@@H]1C[C@H](O)[C@@H]1[C@@H]2CC[C@]2(C)C(=O)CC[C@@H]12 [7β-OH-EpiA, 7β-Hydroxy-epiandrosterone]
MCF-7 cells; 1–100 nM, no dose-response detected
  E2-induced proliferation of MCF-7 cells: inhibited
MCF-7 cells; 1–100 nM
  cell proliferation, compound alone: did not affect

## C[C@]12CC[C@H](O)CC1=CC[C@@H]1[C@@H]2[C@@H](O)C[C@]2(C)C(=O)CC[C@@H]12 [11β-OH-DHEA, 11β-hydroxy-DHEA]
Human ERβ [1]
  ERELUC activity in ERβ-expressing HepG2 cells: suppressed

## C[C@]12CC[C@H](O)CC1=CC[C@@H]1[C@@H]2CC[C@]2(C)C(=O)[C@H](O)C[C@@H]12 [16α-OH-DHEA, 16α-hydroxy-DHEA]
hERα [4]; HEK-293
  ERα agonist activity in ERELUC assay: lack of ERα-induced ERE-luciferase activity
Human ERβ [1]
  ERELUC activity in ERβ-expressing HepG2 cells: increased
[5]
  CTSD (cathepsin D) expression: no activation
  PGR (PR) expression: no activation
  TFF1 (pS2) expression: increased
NRF1 (NRF-1) expression
  NRF-1 mRNA expression: statistically significant increase; also recorded: low induction

## C[C@]12CC[C@H]3[C@@H](CC=C4C[C@@H](O)CC[C@@]43C)[C@@H]1CC[C@@H]2O [ADIOL, androst-5-ene-3β,17β-diol]
Human ERβ [1]
  ERELUC activity in ERβ-expressing HepG2 cells: significantly induced
[5]
  TFF1 (pS2) expression: increased
NRF1 (NRF-1) expression
  NRF-1 mRNA expression: statistically significant increase
[6]
  MCF-7 cell proliferation: increased
MCF-7 cells
  proliferation of MCF-7 cells: stimulated proliferation
  MCF-7 cell proliferation: increased cell proliferation
MCF-7 cells; DHEA 0.5 µM, ADIOL 2 nM
  MCF-7 cell growth: stimulated
ERα
  ERE-luciferase activity, ERα: activated
ERβ
  ERE-luciferase activity, ERβ: activated

## C[C@]12CCC(=O)CC1=CC[C@@H]1[C@@H]2CC[C@]2(C)C(=O)CC[C@@H]12 [ADIONE, androst-5-ene-3,17-dione]
Human ERβ [3]
  IC50: 50 µM and ~50 µM
Human ERβ [1]
  ERELUC activity in ERβ-expressing HepG2 cells: significantly induced
Human ERβ [1]; listed as androst-5-ene-3,17-dione
  ERELUC activity in ERβ-expressing HepG2 cells: effective in activating
NRF1 (NRF-1) expression
  NRF-1 mRNA expression: did not increase
[6]
  MCF-7 cell proliferation: increased

## CC(O)(CS(=O)(=O)c1ccc(F)cc1)C(=O)Nc1ccc(C#N)c(C(F)(F)F)c1 (stereo not drawn) [Bicalutamide, reference compound]
[6]; 10 µM bicalutamide, pretreatment 4 h, also blocked DHT-induced proliferation
  effect on DHEA-, 7-oxo-DHEA-, ADIOL- and ADIONE-induced proliferation: inhibited

## C[C@]12CC[C@H](OS(=O)(=O)O)CC1=CC[C@@H]1[C@@H]2CC[C@]2(C)C(=O)CC[C@@H]12 [DHEA-S, DHEA 3β-sulfate]
hERα [2]; read-out: IC50 for ERα, competition with 30 nM [3H] E2, Fig. 6A
  IC50: 100 to 500 µM
hERα [4]; 5 µM, 24 h, HEK-293, Fig. 1B
  induction of ERELUC activity via ERα: around 9 fold
hERα [4]; concentration-response, at higher concentrations, HEK-293, Fig. 2A
  induction of ERELUC expression with ERα: ~ 2 fold
[5]
  CTSD (cathepsin D) expression: increased
  PGR (PR) expression: increased
  TFF1 (pS2) expression: increased
[6]
  MCF-7 cell proliferation: increased
MCF-7 cells
  MCF-7 cell proliferation: increased cell proliferation

## C[C@]12CCC(=O)C[C@@H]1CC[C@@H]1[C@@H]2CC[C@]2(C)[C@@H](O)CC[C@@H]12 [DHT, dihydrotestosterone, reference compound]
[6]
  MCF-7 cell proliferation: concentration-dependent increase
MCF-7 cells
  proliferation of MCF-7 cells: stimulated proliferation

## C[C@]12CC[C@@H]3c4ccc(O)cc4CC[C@H]3[C@@H]1CC[C@@H]2O [E2, 17β-estradiol, reference compound]
[5]
  CTSD (cathepsin D) expression: increased
  PGR (PR) expression: increased
  TFF1 (pS2) expression: increased
NRF1 (NRF-1) expression
  NRF-1 mRNA expression: statistically significant increase; also recorded: low induction

## C[C@]12CC[C@@H]3c4ccc(O)cc4C[C@@H](CCCCCCCCC[S+]([O-])CCCC(F)(F)C(F)(F)F)[C@H]3[C@@H]1CC[C@@H]2O (stereo partly drawn) [ICI 182,780, reference compound]
hERα [4]; 1 µM ICI, 100 nM 4-OHT, 1 µM R,R-THC, 5 µM sterol, Fig. 3A
  effect on ERα-mediated induction of ERELUC by E2, DHEA, DHEA-S and ADIOL: inhibited
Human ERβ [1]
  effect on ERβ-mediated induction of ERELUC by E2, DHEA, 7-oxo-DHEA, ADIOL and ADIONE: inhibited
[6]; 100 nM ICI 182,780, pretreatment 6 h
  effect on E2-induced stimulation of MCF-7 cell proliferation: inhibited
MCF-7 cells
  effect on the proliferative activity of 10 nM DHEA in MCF-7 cells: lack of inhibition

## COc1cccc(-c2cc(=O)c3ccccc3o2)c1N [PD998059, reference compound]
hERα [4]; [8]
  effect on DHEA or metabolite-induced ERELUC activity, ERα: did not block
Human ERβ [1]; [8]
  effect on DHEA or metabolite-induced ERELUC activity, ERβ: did not block

## C[C@]12CCC(=O)C=C1CC[C@@H]1[C@@H]2CC[C@]2(C)C(=O)CC[C@@H]12 [androst-4-ene-3,17-dione]
Human ERβ [1]
  ERELUC activity in ERβ-expressing HepG2 cells: effective in activating

## C=C1C[C@@H]2[C@H](CC[C@]3(C)C(=O)CC[C@@H]23)[C@@]2(C)C=CC(=O)C=C12 [exemestane, reference compound]
hERα [4]; 100 nM exemestane, HEK-293, Fig. 4A
  effect on E2, DHEA or ADIOL induced ERELUC activity in ERα-transfected cells: did not significantly inhibit
Human ERβ [1]; 100 nM exemestane, HepG2, Fig. 4B
  effect on ADIONE activation of ERβ: no effect
Human ERβ [1]; HepG2, read-out: inhibition of DHEA-, ADIOL- and 7-oxo-DHEA-induced ERELUC reporter activity
  inhibition at 0.1 µM: 20 to 30%
[6]; 100 nM exemestane, 5 µM sterol, 48 h
  effect on proliferation with ADIOL or ADIONE: no inhibitory activity

## Clc1ccc(COC(Cn2ccnc2)c2ccc(Cl)cc2Cl)c(Cl)c1 (stereo not drawn) [miconazole, reference compound]
hERα [2]; 100 µM competitor, Supplemental Fig. 2
  inhibition of [3H] E2 binding to recombinant human ERα: 15%
hERα [2]
  ERα binding / competition with E2: did not compete
hERα [4]; 5 µM miconazole, HEK-293
  effect on DHEA-stimulated ERα transcriptional activity: did not inhibit
hERα [4]; 5 µM miconazole, HEK-293, Fig. 4A
  effect on ERα activation of ERELUC in response to E2 and ADIOL: reduced
Human ERβ [1]; 5 µM miconazole, HepG2, Fig. 4B
  effect on ERβ activation of ERELUC in response to E2, ADIOL, DHEA, ADIONE and 7-oxo-DHEA: reduced
hERα [7]; 10 nM E2, miconazole pretreatment
  effect on E2-induced ERα-ERE-LUC activity: inhibited
hERα [7]; miconazole pretreatment
  increase of basal ERE-luciferase reporter activity: ~ 0.8 fold
[6]; 5 µM miconazole, 48 h
  effect on MCF-7 cell proliferation induced by E2, DHEA, ADIOL and ADIONE: inhibited

## C[C@]12CC[C@H]3[C@@H](CCC4=CC(=O)CC[C@@]43C)[C@@H]1CC[C@@H]2O [testosterone]
MCF-7 cells
  proliferation of MCF-7 cells: stimulated proliferation
